Laboratory results published in ChEMBL document CHEMBL1152150, “Interaction of ladder-shaped polyethers with transmembrane alpha-helix of glycophorin A as evidenced by saturation transfer difference NMR and surface plasmon resonance” (Bioorg Med Chem Lett, 2008).
pKd: −log10 of the molar value. Active and inactive are the calls of the source. The calls are words filed in the database; no cut-off is given here.

Experiments:
[1] = Binding affinity to transmembrane alpha-helix of glycophorin A 2G/2I mutant by surface plasmon resonance method
[2] = target: T1, Glycophorin-A (Homo sapiens, UniProt P02724); test: Binding affinity to transmembrane alpha-helix of glycophorin A by surface plasmon resonance method
[3] = target: T1, Glycophorin-A; test: Binding affinity to transmembrane alpha-helix of glycophorin A by saturation transfer difference NMR

T1 sequence (P02724 whole entry): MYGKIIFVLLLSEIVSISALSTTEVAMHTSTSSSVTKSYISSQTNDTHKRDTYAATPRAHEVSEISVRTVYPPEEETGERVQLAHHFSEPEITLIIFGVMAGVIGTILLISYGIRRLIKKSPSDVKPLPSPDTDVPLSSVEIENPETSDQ

| SMILES | pKd [1] | pKd [2] | Activity [3] |
| --- | --- | --- | --- |
| C[C@@]12CC[C@@H]3O[C@@H]4C[C@@H]5O[C@@H]6C[C@H](O)[C@@H](CO)O[C@H]6CC[C@@]5(C)O[C@H]4C[C@H]3O[C@H]1C[C@H]1O[C@@H](CCOCc3ccccc3)[C@H](OCc3ccccc3)C[C@@H]1O2 | 5.11 | 4.32 | – |
| C[C@@]12CC[C@@H]3O[C@H](CO)[C@@H](O)C[C@H]3O[C@H]1C[C@H]1O[C@@H](COCc3ccccc3)[C@H](OCc3ccccc3)C[C@@H]1O2 | 3.82 | 3.62 | – |
| OC[C@H]1O[C@@H](COCc2ccccc2)[C@H](OCc2ccccc2)C[C@@H]1O | 3.07 | 2.62 | – |
| C=CCC(=C)/C=C/[C@@](C)(O)[C@H]1O[C@@H]2C[C@@H]3O[C@@H]4C[C@@H]5O[C@@H]6C[C@@H]7O[C@@H]8C[C@@H]9O[C@@H]%10C[C@@H]%11O[C@](C)(CCOS(=O)(=O)O)[C@@H](OS(=O)(=O)O)C[C@H]%11O[C@H]%10C[C@H]9O[C@H]8CC[C@@]7(C)O[C@@]6(C)CC[C@H](C)[C@H]5O[C@H]4C[C@@]3(C)O[C@H]2CC1=C [YESSOTOXIN] | 4.07 | 3.92 | Active |
| C=CCC(=C)/C=C/[C@@](C)(O)[C@H]1O[C@@H]2C[C@@H]3O[C@@H]4C[C@@H]5O[C@@H]6C[C@@H]7O[C@@H]8C[C@@H]9O[C@@H]%10C[C@@H]%11O[C@](C)(CCO)[C@@H](O)C[C@H]%11O[C@H]%10C[C@H]9O[C@H]8CC[C@@]7(C)O[C@@]6(C)CC[C@H](C)[C@H]5O[C@H]4C[C@@]3(C)O[C@H]2CC1=C [DESULFATED YESSOTOXIN] | 4.00 | 3.57 | – |
